Patent US20240262819A1, “NOVEL COMPOUNDS HAVING INHIBITORY ACTIVITY AGAINST GLUCOSYLCERAMIDE SYNTHASE OR PHARMACEUTICALLY ACCEPTABLE SALT THEREOF, PROCESSES FOR PREPARING THE SAME, AND PHARMACEUTICAL COMPOSITIONS COMPRISING THE SAME” (YUHAN CORPORATION, priority 2021, published 2024)
Several values for one entry are separate records, joined by “and”; a condition that tells them apart may be missing. Equal entries are not always repeated. Where two headings read alike, the source gives them in different places.

What was measured:
[1] = Evaluation of blood-brain barrier (BBB) permeability through oral administration; format: in vivo, mice; settings: mouse, in vivo
Method: The blood-brain barrier (BBB) permeability was evaluated in mice, with respect to the compounds according to the present invention and the control (ibiglustat). Each compound of the present invention and the control were suspended in 0.5% methyl cellulose containing 0.2% Tween 80 and then orally administered to mice at a dose of 10 or 30 mg/10 ml/kg. After the whole blood was collected from the heart of each mouse at the time of 4 hours after the administration, it was placed in a lithium heparin tube and immediately centrifuged to obtain the plasma. After the exsanguination was carried out through abdominal vena cava incision, the forebrain was taken by dissection of the head. Both of the forebrain and the plasma were stored in a −80° C. freezer until the analysis of drug concentrations therein. For the analysis of drug concentrations therein, the forebrain was immersed in distilled water and then homogenized with a homogenizer to obtain a homogenate. Each plasma and homogenate was treated with acetonitrile to precipitate proteins, vortexed for 15 seconds, and then centrifuged (12700 rpm, 10 min, 4° C.). The obtained supernatant was diluted with an 80% aqueous solution of acetonitrile containing 0.1% formic acid and then analyzed with an LC-MS/MS instrument. LC-MS/MS analysis was carried out with a reversed-phase column, using distilled water containing 0.1% formic acid and acetonitrile as mobile phases. Each eluted material was detected through a mass spectrometer to calculate the drug concentrations thereof. The brain-plasma drug ratio (B/P ratio) was calculated from the drug concentrations in each tissue to evaluate the blood-brain barrier (BBB) permeability.

[2] = test system: GM1 production in Jurkat cells; assay: cells; format: cell-based; settings: Homo sapiens, Jurkat, 72 h
[3] = mice, oral, dose 30 mg/kg, 4 hr, read-out: Mean brain-plasma drug ratio at 4 hr
[4] = mice, oral, dose 30 mg/kg, 4 hr, read-out: Mean drug concentrations in brain tissue at 4 hr
[5] = mice, oral, dose 30 mg/kg, 4 hr, read-out: Mean drug concentrations in plasma at 4 hr

Structure (SMILES) | IC50 [2] [nM] | Kp at 4 h [1, 3] | concentration at 4 h [1, 4] [ng/g] | concentration at 4 h [1, 5] [ng/mL] | also measured
CC(C)(NC(=O)O[C@@H]1CN2CCC1CC2)c1csc(-c2ccc(F)cc2)n1 [Control, Ibiglustat, reference compound] | – | – | – | – | Kp at 4 h ([1]; po, 30 mg/kg): 0.501; concentration at 4 h ([1]; po, 30 mg/kg): 2640 ng/mL and 1320 ng/g
CCCOc1c(C)cc(-c2ccc3c(c2)CC(C)(C)[C@H]3NC(=O)O[C@@H]2CN3CCC2CC3)cc1C [Example 9, (S)-quinuclidin-3-yl((R)-5-(3,5-dimethyl-4-propoxyphenyl)-2,2-dimethyl-2,3-dihydro-1H-inden-1-yl)carbamate] | 22.1 | 6.84 | 2750 | 403 | –
Cc1cc(-c2ccc3c(c2)CC(C)(C)[C@H]3NC(=O)O[C@@H]2CN3CCC2CC3)cc(C)c1OC(C)C [Example 10, (S)-quinuclidin-3-yl((R)-5-(4-isopropoxy-3,5-dimethylphenyl)-2,2-dimethyl-2,3-dihydro-1H-inden-1-yl)carbamate] | 10.3 | 5.62 | 6100 | 1090 | –
CC(C)Oc1ccc(-c2ccc3c(c2)CC(C)(C)[C@H]3NC(=O)O[C@@H]2CN3CCC2CC3)cc1Cl [Example 11, (S)-quinuclidin-3-yl((R)-5-(3-chloro-4-isopropoxyphenyl)-2,2-dimethyl-2,3-dihydro-1H-inden-1-yl)carbamate] | 23.4 | – | – | – | Kp at 4 h ([1]; mice, oral, dose 10 mg/kg, 4 hr, read-out: Mean brain-plasma drug ratio at 4 hr): 9.12; concentration at 4 h ([1]; mice, oral, dose 10 mg/kg, 4 hr, read-out: Mean drug concentrations in brain tissue at 4 hr): 2410 ng/g; concentration at 4 h ([1]; mice, oral, dose 10 mg/kg, 4 hr, read-out: Mean drug concentrations in plasma at 4 hr): 265 ng/mL
COc1ccc(-c2ccc3c(c2)CC(C)(C)[C@H]3NC(=O)O[C@@H]2CN3CCC2CC3)cc1Cl [Example 14, (S)-quinuclidin-3-yl((R)-5-(3-chloro-4-methoxyphenyl)-2,2-dimethyl-2,3-dihydro-1H-inden-1-yl)carbamate] | 48.9 | 3.92 | 3070 | 781 | –
CCOc1ccc(-c2ccc3c(c2)CC(C)(C)[C@H]3NC(=O)O[C@@H]2CN3CCC2CC3)cc1Cl [Example 15, (S)-quinuclidin-3-yl((R)-5-(3-chloro-4-ethoxyphenyl)-2,2-dimethyl-2,3-dihydro-1H-inden-1-yl)carbamate] | 40.5 | 4.66 | 6030 | 1290 | –
CCCOc1ccc(-c2ccc3c(c2)CC(C)(C)[C@H]3NC(=O)O[C@@H]2CN3CCC2CC3)cc1Cl [Example 16, (S)-quinuclidin-3-yl((R)-5-(3-chloro-4-propoxyphenyl)-2,2-dimethyl-2,3-dihydro-1H-inden-1-yl)carbamate] | 28.7 | 8.02 | 1280 | 160 | –
CCCOc1ccc(-c2ccc3c(c2)CC(C)(C)[C@H]3NC(=O)O[C@@H]2CN3CCC2CC3)cc1F [Example 20, (S)-quinuclidin-3-yl((R)-5-(3-fluoro-4-propoxyphenyl)-2,2-dimethyl-2,3-dihydro-1H-inden-1-yl)carbamate] | 18.4 | 7.12 | 4070 | 578 | –
CC(C)Oc1ccc(-c2ccc3c(c2)CC(C)(C)[C@H]3NC(=O)O[C@@H]2CN3CCC2CC3)cc1F [Example 21, (S)-quinuclidin-3-yl((R)-5-(3-fluoro-4-isopropoxyphenyl)-2,2-dimethyl-2,3-dihydro-1H-inden-1-yl)carbamate] | 20.9 | 6.48 | 9510 | 1480 | –
CCOc1c(C)cc(-c2ccc3c(c2)CC(C)(C)[C@H]3NC(=O)O[C@@H]2CN3CCC2CC3)cc1C [Example 22, (S)-quinuclidin-3-yl((R)-5-(4-ethoxy-3,5-dimethylphenyl)-2,2-dimethyl-2,3-dihydro-1H-inden-1-yl)carbamate] | 38.1 | 3.37 | 4400 | 1320 | –
COc1ccc(-c2ccc3c(c2)CC(C)(C)[C@H]3NC(=O)O[C@@H]2CN3CCC2CC3)c(Cl)c1 [Example 43, (S)-quinuclidin-3-yl((R)-5-(2-chloro-4-methoxyphenyl)-2,2-dimethyl-2,3-dihydro-1H-inden-1-yl)carbamate] | 6.4 | 3.65 | 5720 | 1560 | –
Cc1ccc(-c2ccc3c(c2)CC(C)(C)[C@H]3NC(=O)O[C@@H]2CN3CCC2CC3)cc1Cl [Example 45, (S)-quinuclidin-3-yl((R)-5-(3-chloro-4-methylphenyl)-2,2-dimethyl-2,3-dihydro-1H-inden-1-yl)carbamate] | 6 | 9.09 | 7820 | 858 | –
CC(C)COc1ccc(-c2cc3c(cc2F)[C@H](NC(=O)O[C@@H]2CN4CCC2CC4)C(C)(C)C3)cc1 [Example 57, (S)-quinuclidin-3-yl((R)-6-fluoro-5-(4-isobutoxyphenyl)-2,2-dimethyl-2,3-dihydro-1H-inden-1-yl)carbamate] | 0.99 | 20.9 | 1330 | 63.7 | –
CCCCc1ccc(-c2cc3c(cc2F)[C@H](NC(=O)O[C@@H]2CN4CCC2CC4)C(C)(C)C3)cc1 [Example 60, (S)-quinuclidin-3-yl((R)-5-(4-butylphenyl)-6-fluoro-2,2-dimethyl-2,3-dihydro-1H-inden-1-yl)carbamate] | 1 | – | – | – | –
CCCCOc1ccc(-c2cc3c(cc2F)[C@H](NC(=O)O[C@@H]2CN4CCC2CC4)C(C)(C)C3)cc1 [Example 70, (S)-quinuclidin-3-yl((R)-5-(4-butoxyphenyl)-6-fluoro-2,2-dimethyl-2,3-dihydro-1H-inden-1-yl)carbamate] | 0.6 | – | – | – | –
CCc1cccc(-c2cc3c(cc2F)[C@H](NC(=O)O[C@@H]2CN4CCC2CC4)C(C)(C)C3)c1 [Example 71, (S)-quinuclidin-3-yl((R)-5-(3-ethylphenyl)-6-fluoro-2,2-dimethyl-2,3-dihydro-1H-inden-1-yl)carbamate] | 12.7 | – | – | – | –
CC(C)c1cccc(-c2cc3c(cc2F)[C@H](NC(=O)O[C@@H]2CN4CCC2CC4)C(C)(C)C3)c1 [Example 73, (S)-quinuclidin-3-yl((R)-6-fluoro-5-(3-isopropylphenyl)-2,2-dimethyl-2,3-dihydro-1H-inden-1-yl)carbamate] | 10.8 | – | – | – | –
CC(C)Cc1cccc(-c2cc3c(cc2F)[C@H](NC(=O)O[C@@H]2CN4CCC2CC4)C(C)(C)C3)c1 [Example 74, (S)-quinuclidin-3-yl((R)-6-fluoro-5-(3-isobutylphenyl)-2,2-dimethyl-2,3-dihydro-1H-inden-1-yl)carbamate] | 19.4 | – | – | – | –
COc1cccc(-c2cc3c(cc2F)[C@H](NC(=O)O[C@@H]2CN4CCC2CC4)C(C)(C)C3)c1 [Example 75, (S)-quinuclidin-3-yl((R)-6-fluoro-5-(3-methoxyphenyl)-2,2-dimethyl-2,3-dihydro-1H-inden-1-yl)carbamate] | 14.8 | – | – | – | –
CCOc1cccc(-c2cc3c(cc2F)[C@H](NC(=O)O[C@@H]2CN4CCC2CC4)C(C)(C)C3)c1 [Example 76, (S)-quinuclidin-3-yl((R)-5-(3-ethoxyphenyl)-6-fluoro-2,2-dimethyl-2,3-dihydro-1H-inden-1-yl)carbamate] | 33.4 | – | – | – | –
CCCOc1cccc(-c2cc3c(cc2F)[C@H](NC(=O)O[C@@H]2CN4CCC2CC4)C(C)(C)C3)c1 [Example 77, (S)-quinuclidin-3-yl((R)-6-fluoro-2,2-dimethyl-5-(3-propoxyphenyl)-2,3-dihydro-1H-inden-1-yl)carbamate] | 23.7 | – | – | – | –
CC(C)COc1cccc(-c2cc3c(cc2F)[C@H](NC(=O)O[C@@H]2CN4CCC2CC4)C(C)(C)C3)c1 [Example 78, (S)-quinuclidin-3-yl((R)-6-fluoro-5-(3-isobutoxyphenyl)-2,2-dimethyl-2,3-dihydro-1H-inden-1-yl)carbamate] | 17.6 | – | – | – | –
CCCCOc1cccc(-c2cc3c(cc2F)[C@H](NC(=O)O[C@@H]2CN4CCC2CC4)C(C)(C)C3)c1 [Example 79, (S)-quinuclidin-3-yl((R)-5-(3-butoxyphenyl)-6-fluoro-2,2-dimethyl-2,3-dihydro-1H-inden-1-yl)carbamate] | 6 | – | – | – | –
CCOc1c(C)cc(-c2cc3c(cc2F)[C@H](NC(=O)O[C@@H]2CN4CCC2CC4)C(C)(C)C3)cc1C [Example 80, (S)-quinuclidin-3-yl((R)-5-(4-ethoxy-3,5-dimethylphenyl)-6-fluoro-2,2-dimethyl-2,3-dihydro-1H-inden-1-yl)carbamate] | 51 | – | – | – | –
CC(C)Oc1cccc(-c2cc3c(cc2F)[C@H](NC(=O)O[C@@H]2CN4CCC2CC4)C(C)(C)C3)c1 [Example 81, (S)-quinuclidin-3-yl((R)-6-fluoro-5-(3-isopropoxyphenyl)-2,2-dimethyl-2,3-dihydro-1H-inden-1-yl)carbamate] | 18.7 | – | – | – | –
